Reference: patent US20120252037A1, “STIMULATORY AUTO-ANTIBODIES TO THE PDGF RECEPTOR AS PATHOLOGY MARKER AND THERAPEUTIC TARGET” (priority 2005, published 2012)
Where two headings read alike, the source gives them in different places. Peptide text beside a SMILES is read from it. * marks the point of attachment. Cbz = O=C(OCc1ccccc1)*

Columns and labels:
Ha-Ras = Ha-Ras / Ki-Ras protein levels in primary fibroblasts (immunoprecipitation, immunoblot, immunofluorescence, FACS); assay type: cell-based, human; settings: for effect on Ha-Ras induction by PDGF / effect on Ha Ras levels: primary fibroblasts
Procedure: Ras proteins were immunoprecipitated from cultured fibroblasts with polyclonal anti pan Ras antibody (Santa Cruz Biotechnology, Santa Cruz, Calif.) following recommended procedures from the manufacturer.
Fibroblasts, cultured on Lab-Tek chamber glass slides (Nalge-Nunc, Ill., USA) and starved 48 h before stimulation or addition of inhibitors, were fixed 4% para-formaldheide, permeabilized by 0.1% Triton-X, and stained with a monoclonal antibody against Ha-Ras and then with a tetramethylrhodamine-isothiocyanate (TRITC) conjugated secondary antibody (Molecular Probes, NL). Slides were mounted with Vectarshield (H-100; Vector, Burlingame, Calif.) and examined using a BioRad (Hemel Hempstead, UK) microradiance confocal laser-scanning microscope equipped with argon and helium/neon lasers. Acquired images were analysed using the Laser Sharp Processing BioRad software (version 3.2). All images from different slides condition were acquired in double-blinded fashion.
Cells were grown to semiconfluency in 60 mm culture dishes. After trypsin detachment, 5×10^5 cells were suspended in 1 ml of phosphate buffered saline (PBS) and fixed overnight with 1% formaldehyde at room temperature. Next, cells were permeabilized with 0.1% Triton×100 for 40 min at 4° C., washed 4 times with 2 ml of PBS containing 2% FBS, 0.01% NaN3, 0.1% Triton×100 (buffer A), and incubated for 45 min at 4° C. with 1:50 dilution of monoclonal and polyclonal anti HaRas antibodies (Santa Cruz Biotechnology, Santa Cruz, Calif., USA). The cells were then washed twice with the same buffer and incubated for 45 min at 4° C. with Cy2-conjugated anti-mouse IgG antibodies (Amersham Pharmacia Biotech, Milano, Italia) at 1:50 dilution. Control cells were incubated with Cy2-conjugated anti mouse IgG antibodies alone. After two washes in buffer A, cells were resuspended in PBS and analyzed by flow cytometry using FACScan (BD, Heidelberg, Germany) and WinMDI software.

[1] = biological target: T1, PDGFR α subunit expressed by Fα cells (Homo sapiens, UniProt P16234); assay: Bio-assay for anti PDGFR autoantibodies: ROS production (DCF fluorescence) in Fα cells; assay type: cell-based, mouse; settings: pre-incubation 2 μM for 2 hours
T1 construct: expressed in transfected cells; host or cells: mouse embryo fibroblasts from PDGF receptor knock-out embryos (F-/-) infected with PDGFR α (Fα cells)
T1 sequence (P16234 24-1089): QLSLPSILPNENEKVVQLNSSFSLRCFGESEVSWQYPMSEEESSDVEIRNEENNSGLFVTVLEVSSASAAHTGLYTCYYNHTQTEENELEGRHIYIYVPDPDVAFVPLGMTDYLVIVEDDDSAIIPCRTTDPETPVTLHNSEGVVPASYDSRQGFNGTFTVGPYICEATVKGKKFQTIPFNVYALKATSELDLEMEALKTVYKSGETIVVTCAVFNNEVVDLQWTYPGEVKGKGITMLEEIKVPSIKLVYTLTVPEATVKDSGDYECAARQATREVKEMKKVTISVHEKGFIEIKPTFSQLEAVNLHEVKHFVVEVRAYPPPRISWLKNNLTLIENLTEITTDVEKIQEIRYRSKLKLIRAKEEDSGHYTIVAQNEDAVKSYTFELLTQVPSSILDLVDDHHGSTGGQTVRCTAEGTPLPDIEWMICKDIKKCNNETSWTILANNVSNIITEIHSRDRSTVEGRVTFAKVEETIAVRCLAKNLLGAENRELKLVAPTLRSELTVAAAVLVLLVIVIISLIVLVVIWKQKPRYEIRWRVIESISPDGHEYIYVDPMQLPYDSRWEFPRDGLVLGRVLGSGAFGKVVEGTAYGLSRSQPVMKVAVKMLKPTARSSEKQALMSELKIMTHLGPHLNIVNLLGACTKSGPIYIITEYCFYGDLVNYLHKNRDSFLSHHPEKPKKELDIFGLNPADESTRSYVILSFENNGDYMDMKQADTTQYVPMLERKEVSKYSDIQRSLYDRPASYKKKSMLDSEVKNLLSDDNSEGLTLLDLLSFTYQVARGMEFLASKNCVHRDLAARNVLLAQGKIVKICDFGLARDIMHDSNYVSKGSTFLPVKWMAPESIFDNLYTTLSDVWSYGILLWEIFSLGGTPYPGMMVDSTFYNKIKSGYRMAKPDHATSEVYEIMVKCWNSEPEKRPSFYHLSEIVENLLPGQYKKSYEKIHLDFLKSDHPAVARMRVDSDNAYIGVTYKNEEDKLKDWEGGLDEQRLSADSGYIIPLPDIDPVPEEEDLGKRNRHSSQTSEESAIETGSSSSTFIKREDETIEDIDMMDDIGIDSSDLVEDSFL
Procedure: Patients and control serum samples were tested for the presence of PDGFR activating autoantibodies in a functional bioassay based on the production of ROS by mouse embryo fibroblasts infected with PDGFR α and/or β subunits and exposed in vitro to immunopurified IgG. Control cells were F−/− cells devoid of PDGFR. In brief, cells were plated in duplicate at a density of 30,000 cells in 1.83-cm^2 wells and incubated for 24 hours at 37° C. in 0.2 percent fetal calf serum. The cells were then washed with phosphate-buffered saline and incubated with a pre-determined amount of control or patient IgG for 15 minutes at 37° C. before ROS production determination.
Fluorimetric determination of intracellular ROS generated by adherent fibroblasts was estimated after loading the cells with 2′,7′-dichlorofluorescein diacetate (DCFH-DA 10 μM, Molecular Probes, PoortGebouw, The Nederlands) for 15 min at 37° C. The DCF fluorescence intensity was measured by a CytoFluor plate reader (PerkinElmer, Wallac, Finland) (excitation wavelength, 485 nm; emission wavelength, 530 nm) (8). […] Each IgG sample was run in duplicate and the average has been recorded. The results are expressed as DCF fluorescence intensity calculated subtracting from the DCF fluorescence intensity of the test IgG the DCF fluorescence intensity of a negative control obtained by cell cultured without IgG. […]

PDGF receptor = PDGF receptor level in primary fibroblast extracts (immunoblot); assay type: cell-based, human; settings: independently on ERK1/2 activation; FIG. 5D
Procedure: D. PDGF induction of Ha-Ras is mediated by ERK1/2. Fibroblasts, incubated in 0.2% FCS for 48 h, were treated with the MEK inhibitors, PD98059 (40 μM) 2 h, before the treatment with PDGF (15 ng/ml).

PDGFR = biological target: T2, PDGFR (Homo sapiens, UniProt P09619); assay: Tyrosine phosphorylation of the PDGFR in normal fibroblasts; assay type: cell-based; settings: FIG. 2D and data not shown
T2 construct: endogenous in cells; host or cells: normal human fibroblasts
T2 sequence (P09619 33-1106): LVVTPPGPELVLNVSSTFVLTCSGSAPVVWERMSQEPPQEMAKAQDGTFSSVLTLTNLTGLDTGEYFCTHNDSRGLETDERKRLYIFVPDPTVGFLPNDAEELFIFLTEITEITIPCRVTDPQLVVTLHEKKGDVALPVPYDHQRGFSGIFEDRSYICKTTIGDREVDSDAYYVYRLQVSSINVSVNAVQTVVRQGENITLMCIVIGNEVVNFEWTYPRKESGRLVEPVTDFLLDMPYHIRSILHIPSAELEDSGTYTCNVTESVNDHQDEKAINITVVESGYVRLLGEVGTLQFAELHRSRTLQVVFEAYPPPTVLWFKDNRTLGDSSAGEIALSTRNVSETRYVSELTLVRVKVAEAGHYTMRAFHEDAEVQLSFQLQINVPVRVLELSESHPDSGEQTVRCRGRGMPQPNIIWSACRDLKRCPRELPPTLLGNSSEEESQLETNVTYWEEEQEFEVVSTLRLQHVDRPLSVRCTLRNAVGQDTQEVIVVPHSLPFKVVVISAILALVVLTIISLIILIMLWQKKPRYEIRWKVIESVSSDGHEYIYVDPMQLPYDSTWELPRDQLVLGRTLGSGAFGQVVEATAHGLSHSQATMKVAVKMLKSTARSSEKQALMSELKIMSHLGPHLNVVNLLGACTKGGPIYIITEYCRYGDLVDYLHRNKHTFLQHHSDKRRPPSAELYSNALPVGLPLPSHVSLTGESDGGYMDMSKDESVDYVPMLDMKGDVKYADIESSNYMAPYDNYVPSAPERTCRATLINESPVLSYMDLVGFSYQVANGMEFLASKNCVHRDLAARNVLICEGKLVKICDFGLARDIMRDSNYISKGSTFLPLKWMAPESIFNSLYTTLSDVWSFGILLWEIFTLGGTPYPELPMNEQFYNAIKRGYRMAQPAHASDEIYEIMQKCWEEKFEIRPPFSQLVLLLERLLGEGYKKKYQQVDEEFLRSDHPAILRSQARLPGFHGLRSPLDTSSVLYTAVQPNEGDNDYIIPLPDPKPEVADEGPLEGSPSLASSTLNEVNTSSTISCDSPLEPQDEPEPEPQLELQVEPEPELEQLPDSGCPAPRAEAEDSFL
Procedure: Panel D. Normal human fibroblasts were stimulated with SSc IgG (200 μg/ml for 15 min), PDGF (15 ng/ml for 15 min) or grown in FCS 0.2%. Cell lysates were immunoprecipitated with a polyclonal antibody against PDGFR (subunit β) and the immunoblots were developed with a specific antibody against phosphorylated tyrosine.

normal human fibroblasts = assay: ROS (DCF fluorescence) in normal human fibroblasts; assay type: cell-based; settings: for effect on ROS induction by SSc IgG in normal fibroblasts: FIG. 2A, pre-incubation for 2 hours (AG1478 2 μM, FT-277 20 μM, PD98059 40 μM)
Procedure: Fluorimetric determination of intracellular ROS generated by adherent fibroblasts was estimated after loading the cells with 2′,7′-dichlorofluorescein diacetate (DCFH-DA 10 μM, Molecular Probes, PoortGebouw, The Nederlands) for 15 min at 37° C. The DCF fluorescence intensity was measured by a CytoFluor plate reader (PerkinElmer, Wallac, Finland) (excitation wavelength, 485 nm; emission wavelength, 530 nm) (8). Ten measurements were made in each single well from ten distinct points and the values averaged. Each IgG sample was run in duplicate and the average has been recorded. The results are expressed as DCF fluorescence intensity calculated subtracting from the DCF fluorescence intensity of the test IgG the DCF fluorescence intensity of a negative control obtained by cell cultured without IgG. The intra-plate and the inter-plate coefficient of variation was less than 3%. The samples were recorded as positive if the SI was greater than the mean plus three standard deviations of the normal group.
In selected experiments ROS generation was evaluated after the addition of PDGF receptor tyrosine kinase inhibitor (AG 1296; 2 μM for 2 hours), Epidermal growth factor (EGF) receptor tyrosine kinase inhibitor (AG 1478; 2 μM for 2 hours), a chemical inhibitor of ERK 1/2 signalling (PD 98059; 40 μM for 2 hours), and a farnesyl protein transferase inhibitor to block Ras farnesylation (FTI-277; 20 μM for 2 hours). AG 1296, AG 1478, PD 98059 and FTI-277 were obtained from Calbiochem (San Diego, Calif.).
Fluorimetric determination of intracellular ROS generated by fibroblasts was estimated after loading the cells with DCFH-DA (10 μM) for 15 min at 37° C. before assessing DCF fluorescence level (15). Superoxide anion release was estimated using the superoxide dismutase-inhibitable cytochrome c reduction (12). H2O2 release from fibroblasts into the overlying medium was assayed using a modification of the method of Valletta and Berton (1987) (16). Oxidative activity imaging in living, transfected cells was evaluated as described (12, 17).

[2] = tested on: Umbilical vein endothelial cells; assay: Apoptosis of umbilical vein endothelial cells (annexin V FACS); assay type: cell-based; settings: overnight; SSc IgG 200 μg/ml, PDGF 15 ng/ml; FIG. 3C
Procedure: Endothelial cells will be isolated from umbilical cord. Cells were stimulated with SSc IgG (200 μg/ml), normal IgG (200 μg/ml) and PDGF (15 ng/ml) for 12 hours in the presence and in the absence of inhibitors of PDGFR and EGFR tyrosine kinase activity.
(§1) Six hours after the removal of the stimulus, apoptosis was detected by FACS analysis using annexin V-Cy3 (Clontech, Palo Alto Calif.). Statistical analysis

ERK1/2 = assay: P-ERK1/2 immunoblot in primary fibroblasts; assay type: cell-based, human; settings: for effect on ERK1/2 activated by PDGF: NAC 20 mM 5 h, DPI 20 μM 1 h, FIG. 5E
Procedure: Cell culture plates were lysed with 0.3 ml of cold RIPA buffer (1×PBS, 1% Nonidet P-40, 0.5% sodium deoxycholate, 0.1% SDS, 2 mM sodium orthovanadate, 2 μg/ml aprotinin, 1 mM PMSF) and processed for immunoblotting as described (8).
Cell culture plates were lysed with 0.3 ml of cold RIPA buffer (1×PBS, 1% Nonidet P-40, 0.5% sodium deoxycholate, 0.1% SDS, 2 mM sodium orthovanadate, 2 μg/ml aprotinin, 1 mM PMSF) and processed as described (14).

SSc fibroblasts = assay: Oxidative stress-induced apoptosis in scleroderma fibroblasts; assay type: cell-based, human; settings: H2O2, pre-treatment, FIG. 8C
Procedure: Normal and scleroderma fibroblasts were grown to 80-90% confluence and treated for 2 h with different concentrations of H2O2. When needed, cells were preincubated 30 min with PD 98059 (40 μmol/L).
as §1

[3] = 90 min in the presence of genistein, data not shown

## cyclodextrin
Ha-Ras; PDGF 15 ng/ml
  effect on Ha-Ras induction by PDGF: did not abolish

## COc1cc2ncc(-c3ccccc3)nc2cc1OC [AG 1296]
[1]
  effect on ROS induced in Fα cells incubated with SSc IgG: inhibited

## PDGF
Ha-Ras; estimated from several experiments
  half-life of Ha-Ras protein induced by PDGF: approximately 40 min
Ha-Ras; of PDGF stimulation, FIG. 4A
  Ki-Ras decay time: 3 h
Ha-Ras; primary human fibroblasts, growth factor still present
  time after stimulation at which Ha-Ras decreased to the initial levels: 120 min
Ha-Ras; quiescent primary human fibroblasts, PDGF 15 ng/ml
  PDGF stimulation time sufficient to induce Ha-Ras protein: 15 min
PDGF receptor
  PDGF receptor level: down-regulated
PDGFR
  duration of PDGFR tyrosine phosphorylation: 15 min
Normal human fibroblasts; discussion, cells not given
  duration of induced ROS (return to baseline): 15 to 30 min
[2]
  induction of endothelial cell apoptosis: unable to induce apoptosis

## COc1cc2ncnc(Nc3cccc(Cl)c3)c2cc1OC [AG1478]
Ha-Ras; normal human fibroblasts, FIG. 2B, inhibitor for 2 h
  effect on Ha-Ras induced by SSc IgG: slight inhibition
Normal human fibroblasts
  effect on ROS induction by SSc IgG in normal fibroblasts: prevented

## C[C@@H]1C[C@@H]([C@H](O)CC2CC(=O)NC(=O)C2)C(=O)[C@@H](C)C1 [cycloheximide]
Ha-Ras; PDGF 15 ng/ml
  effect on Ha-Ras induction by PDGF: did not prevent

## c1ccc2c(c1)[I+]c1ccccc1-2 [DPI, diphenylene iodonium]
Ha-Ras; PDGF 15 ng/ml
  effect on Ha-Ras induction by PDGF: significantly inhibited
ERK1/2
  effect on ERK1/2 activated by PDGF: sensitive

## O=c1c(-c2ccc(O)cc2)coc2cc(O)cc(O)c12 [genistein]
Ha-Ras; [3]
  effect on Ha-Ras induced by H2O2, longer incubation: inhibited
Ha-Ras; PDGF 15 ng/ml
  effect on Ha-Ras induction by PDGF: inhibited
ERK1/2; [3]
  effect on ERK1/2 induced by H2O2, longer incubation: inhibited

## OO [H2O2]
Ha-Ras; FIG. 6D
  Ha Ras induction in the presence of genistein: powerful inducer

## CC(C)C[C@@H](C=O)NC(=O)[C@H](CC(C)C)NC(=O)[C@H](CC(C)C)NC(=O)OCc1ccccc1 [MG132] (Cbz-Leu-Leu-Leu-aldehyde)
Ha-Ras; FIG. 6E
  effect on Ha Ras when administered with PDGF or H2O2: not additive
  effect on Ha Ras levels: induced

## CC[C@@]1([C@@H]2O[C@@H]([C@H]3O[C@@](O)(CO)[C@H](C)C[C@@H]3C)C[C@@H]2C)CC[C@H]([C@]2(C)CC[C@]3(C[C@H](O)[C@@H](C)[C@@H]([C@@H](C)[C@@H](OC)[C@H](C)C(=O)O)O3)O2)O1 [monensin]
Ha-Ras; FIG. 6E
  effect on Ha Ras levels: no effect

## CC(=O)N[C@@H](CS)C(=O)O [NAC, N-acetyl-L-cysteine]
Ha-Ras; PDGF 15 ng/ml
  effect on Ha-Ras induction by PDGF: significantly inhibited
ERK1/2
  effect on ERK1/2 activated by PDGF: sensitive

## N#CC(=C(/N)Sc1ccccc1N)/C(C#N)=C(\N)Sc1ccccc1N [U0126]
Ha-Ras
  effect on induction of Ha-Ras by H2O2: abolished

## COC(=O)[C@H](CCSC)NC(=O)c1ccc(NC[C@@H](N)CS)cc1-c1ccccc1 [FTI-277]
Normal human fibroblasts
  effect on ROS induction by SSc IgG in normal fibroblasts: prevented

## COc1cccc(-c2cc(=O)c3ccccc3o2)c1N [PD98059]
Ha-Ras; PD 98059 2 h, U0126 15 min incubation, FIGS. 6A, 6B
  effect on induction of Ha-Ras by H2O2: abolished
Ha-Ras; PDGF 15 ng/ml
  effect on Ha-Ras induction by PDGF: inhibited
Normal human fibroblasts
  effect on ROS induction by SSc IgG in normal fibroblasts: prevented
SSc fibroblasts
  effect on oxidative stress-induced apoptosis: inhibited
